Results: PMC12188386, “Selective CBP/EP300 Bromodomain Inhibitors: Novel Epigenetic Tools to Counter TNF-α-Driven Inflammation” (JACS Au, 2025)

Legend:
Test in all cases: NCI-60 one-dose screen
Format in all cases: cell-based, human
786-0 = details: 10 µM, 48 h, Renal Cancer
Description: (§1) Adapted from NCI-60 Screening Methodology, one-dose screen:20 Briefly, human tumor cell lines, grown in RPMI 1640 containing 5% FBS and 2 mM L-glutamine, were plated in 96 well plates at densities ranging from 5,000 to 40,000 cells/well 24 h prior to addition of test compounds (here 10 μM 2). 400x solutions of test compounds were prepared in DMSO, then diluted to 2x in medium supplemented with 50 μg/mL gentamicin. 100 μl of this 2x stock was added to cells previously plated in 100 μl medium, resulting in the desired final compound concentration. Cells were fixed in situ with cold TCA: untreated cells at the time of compound addition (Tz) and treated cells 48 h after addition of compound (Ti). Cells were washed, then su f rh damine s uti n μ at . w/v in acetic acid was added to each well and incubated for 10 minutes at room temperature. After washing again, the plates were air dried and bound stain solubilized with 10 mM Trizma base before absorbance was […]
(§2) Percentage growth (%Growth) was calculated as follows:
(§3) when Ti ≥ Tz, %Growth = Ti − Tz x 100 where Ti = absorbance from compound treated cells, Tz = absorbance from untreated cells at time zero, and C = absorbance from control (DMSO) treated cells. […]

A498 = details: 10 µM, 48 h, Renal Cancer
Description: as §1, §2, §3

ACHN = details: 10 µM, 48 h, Renal Cancer
Description: as §1, §2, §3

CAKI-1 = details: 10 µM, 48 h, Renal Cancer
Description: as §1, §2, §3

CCRF-CEM = details: 10 µM, 48 h, Leukemia, relative to no-drug control and time zero
Description: as §1, §2, §3

COLO 205 = details: 10 µM, 48 h, Colon Cancer
Description: as §1, §2, §3

DU-145 = details: 10 µM, 48 h, Prostate Cancer
Description: as §1, §2, §3

EKVX = details: 10 µM, 48 h, Non-Small Cell Lung Cancer
Description: as §1, §2, §3

HCC-2998 = details: 10 µM, 48 h, Colon Cancer
Description: as §1, §2, §3

HCT-116 = details: 10 µM, 48 h, Colon Cancer
Description: as §1, §2, §3

HCT-15 = details: 10 µM, 48 h, Colon Cancer
Description: as §1, §2, §3

HOP-92 = details: 10 µM, 48 h, Non-Small Cell Lung Cancer
Description: as §1, §2, §3

HS 578T = details: 10 µM, 48 h, Breast Cancer
Description: as §1, §2, §3

IGROV1 = details: 10 µM, 48 h, Ovarian Cancer
Description: as §1, §2, §3

KM12 = details: 10 µM, 48 h, Colon Cancer
Description: as §1, §2, §3

MALME-3M = details: 10 µM, 48 h, Melanoma
Description: as §1, §2, §3

MCF7 = details: 10 µM, 48 h, Breast Cancer
Description: as §1, §2, §3

MDA-MB-231/ATCC = details: 10 µM, 48 h, Breast Cancer
Description: as §1, §2, §3

MDA-MB-435 = details: 10 µM, 48 h, Melanoma, values <0 indicate lethality
Description: as §1, §2, §3

MDA-MB-468 = details: 10 µM, 48 h, Breast Cancer, values <0 indicate lethality
Description: as §1, §2, §3

MOLT-4 = details: 10 µM, 48 h, Leukemia
Description: as §1, §2, §3

NCI-H226 = details: 10 µM, 48 h, Non-Small Cell Lung Cancer
Description: as §1, §2, §3

NCI-H23 = details: 10 µM, 48 h, Non-Small Cell Lung Cancer
Description: as §1, §2, §3

NCI-H460 = details: 10 µM, 48 h, Non-Small Cell Lung Cancer
Description: as §1, §2, §3

NCI-H522 = details: 10 µM, 48 h, Non-Small Cell Lung Cancer
Description: as §1, §2, §3

NCI/ADR-RES = details: 10 µM, 48 h, Ovarian Cancer
Description: as §1, §2, §3

OVCAR-4 = details: 10 µM, 48 h, Ovarian Cancer
Description: as §1, §2, §3

OVCAR-5 = details: 10 µM, 48 h, Ovarian Cancer
Description: as §1, §2, §3

OVCAR-8 = details: 10 µM, 48 h, Ovarian Cancer
Description: as §1, §2, §3

PC-3 = details: 10 µM, 48 h, Prostate Cancer
Description: as §1, §2, §3

RXF 393 = details: 10 µM, 48 h, Renal Cancer, values <0 indicate lethality
Description: as §1, §2, §3

SF-268 = details: 10 µM, 48 h, CNS Cancer
Description: as §1, §2, §3

SF-295 = details: 10 µM, 48 h, CNS Cancer
Description: as §1, §2, §3

SF-539 = details: 10 µM, 48 h, CNS Cancer
Description: as §1, §2, §3

SK-MEL-2 = details: 10 µM, 48 h, Melanoma
Description: as §1, §2, §3

SK-MEL-5 = details: 10 µM, 48 h, Melanoma, values <0 indicate lethality
Description: as §1, §2, §3

SN12C = details: 10 µM, 48 h, Renal Cancer
Description: as §1, §2, §3

SNB-75 = details: 10 µM, 48 h, CNS Cancer
Description: as §1, §2, §3

SW-620 = details: 10 µM, 48 h, Colon Cancer
Description: as §1, §2, §3

T-47D = details: 10 µM, 48 h, Breast Cancer
Description: as §1, §2, §3

TK-10 = details: 10 µM, 48 h, Renal Cancer
Description: as §1, §2, §3

UO-31 = details: 10 µM, 48 h, Renal Cancer
Description: as §1, §2, §3

SMILES: Cc1cc2c(NC(=O)c3cc(NC(=O)c4ccco4)cc(-c4ccn(C)n4)c3)cccc2nn1 [Compound 2]
- %Growth (786-0): 57%
- %Growth (A498): 91%
- %Growth (ACHN): 73%
- %Growth (CAKI-1): 22%
- %Growth (CCRF-CEM): 43%
- %Growth (COLO 205): 32%
- %Growth (DU-145): 87%
- %Growth (EKVX): 63%
- %Growth (HCC-2998): 66%
- %Growth (HCT-116): 38%
- %Growth (HCT-15): 64%
- %Growth (HOP-92): 63%
- %Growth (HS 578T): 19%
- %Growth (IGROV1): 54%
- %Growth (KM12): 28%
- %Growth (MALME-3M): 40%
- %Growth (MCF7): 22%
- %Growth (MDA-MB-231/ATCC): 57%
- %Growth (MDA-MB-435): -47%
- %Growth (MDA-MB-468): -19%
- %Growth (MOLT-4): 53%
- %Growth (NCI-H226): 49%
- %Growth (NCI-H23): 71%
- %Growth (NCI-H460): 18%
- %Growth (NCI-H522): 3%
- %Growth (NCI/ADR-RES): 91%
- %Growth (OVCAR-4): 63%
- %Growth (OVCAR-5): 89%
- %Growth (OVCAR-8): 67%
- %Growth (PC-3): 54%
- %Growth (RXF 393): -5%
- %Growth (SF-268): 72%
- %Growth (SF-295): 42%
- %Growth (SF-539): 44%
- %Growth (SK-MEL-2): 18%
- %Growth (SK-MEL-5): -36%
- %Growth (SN12C): 63%
- %Growth (SNB-75): 27%
- %Growth (SW-620): 52%
- %Growth (T-47D): 44%
- %Growth (TK-10): 78%
- %Growth (UO-31): 43%
